From US10647693B2, “Inhibitors of influenza virus replication, application methods and uses thereof” (SUNSHINE LAKE PHARMA CO., LTD., priority 2016, dated 2020)

Key:
[1] = SD, rat, in vivo, po, 5 mg/kg
Method: (§1) Pharmacokinetic characteristics of the compound of the invention in SD rat were evaluated. The compounds disclosed herein were administered in form of a saline solution containing 5% DMSO, 5% Kolliphor HS 15 and 90% Saline. For intravenous administration (i.v.), the animals were administered with a dose of 1 mg/kg, and blood samples (0.3 mL) were collected at the time points of 0.083, 0.25, 0.5, 1.0, 2.0, 5.0, 7.0 and 24 h after drug administration, then each blood sample was processed to separate plasma by centrifugation at 3000 rpm or 4000 rpm for 10 minutes. For oral administration (p.o.), the animals were administered with a dose of 5 mg/kg, and blood samples (0.3 mL) were collected at the time points of 0.25, 0.5, 1.0, 2.0, 5.0, 7.0 and 24 h after drug administration, then each blood sample was processed to separate plasma by centrifugation at 3000 rpm or 4000 rpm for 10 minutes. Plasma samples were collected and stored at −20° C. or −70° C. until LC/MS/MS analysis.

[2] = system: virus H1N1 A/Weiss/43; assay: microbe, parasite or virus in culture; format: cell-based; conditions: Influenza A virus, 120 h; inhibition of CPE caused by A/Weiss/43(H1N1) in MDCK cells, 5 days, CCK-8
[3] = in vivo; conditions: SD, rat
Method: as §1

SMILES	F [1] [%]	EC50 [2] [nM]	AUC(0-inf) ([3]; iv, 1 mg/kg) [µg·h/mL]	AUC(0-t) ([3]; iv, 1 mg/kg) [µg·h/mL]	Cmax ([3]; iv, 1 mg/kg) [µg/mL]	Tmax ([3]; iv, 1 mg/kg) [h]	Vd ([3]; iv, 1 mg/kg) [L/kg]	clearance ([3]; iv, 1 mg/kg) [L/h/kg]	half-life ([3]; iv, 1 mg/kg) [h]	AUC(0-inf) ([3]; po, 5 mg/kg) [µg·h/mL]	AUC(0-t) ([3]; po, 5 mg/kg) [µg·h/mL]	Cmax ([3]; po, 5 mg/kg) [µg/mL]	Tmax ([3]; po, 5 mg/kg) [h]	half-life ([3]; po, 5 mg/kg) [h]
N#Cc1c(-c2c[nH]c3c(F)cc(F)cc23)nc(NC2C3CCC(CC3)C2C(=O)O)c(F)c1-c1ccco1 (racemic) [Example 1, (+/−)-trans-3-((5-cyano-6-(5,7-difluoro-1H-indol-3-yl)-3-fluoro-4-(furan-2-yl)pyridin-2-yl)amino)bicyclo[2.2.2]octane-2-carboxylic Acid]	83.9	0.27	5.71	5.68	6.56	0.083	0.231	0.232	1.24	21.6	21.3	5.78	1.1	1.52
N#Cc1c(-c2c[nH]c3c(F)cc(F)cc23)nc(NC2C3CCC(CC3)C2C(=O)O)c(F)c1-c1ccc(C(F)(F)F)cc1 (racemic) [Example 3, (+/−)-trans-3-((5-cyano-6-(5,7-difluoro-1H-indol-3-yl)-3-fluoro-4-(4-trifluoromethylphenyl)pyridin-2-yl)amino)bicyclo[2.2.2]octane-2-carboxylic Acid]	104.6	–	2.62	2.58	4.34	0.083	1.98	0.431	1.13	13.1	12.6	8.86	0.35	1.76
N#Cc1c(-c2c[nH]c3c(F)cc(F)cc23)nc(NC2C3CCC(CC3)C2C(=O)O)c(F)c1C1CC1 (racemic) [Example 8, (+/−)-trans-3-((5-cyano-4-cyclopropyl-6-(5,7-difluoro-1H-indol-3-yl)-3-fluoropyridin-2-yl)amino)bicyclo[2.2.2]octane-2-carboxylic Acid]	–	5.09	–	–	–	–	–	–	–	–	–	–	–	–
N#Cc1c(-c2c[nH]c3ncc(F)cc23)nc(NC2C3CCC(CC3)C2C(=O)O)c(F)c1C1CC1 (racemic) [Example 9, (+/−)-trans-3-((5-cyano-4-cyclopropyl-3-fluoro-6-(5-fluoro-1H-pyrrolo[2,3-b]pyridin-3-yl)pyridin-2-yl)amino)bicyclo[2.2.2]octane-2-carboxylic Acid]	65.2	0.49	2.71	2.64	3.64	0.083	0.551	0.328	2.15	8.23	8.14	2.85	0.46	3.39
N#Cc1c(-c2c[nH]c3c(F)cc(F)cc23)nc(NC2C3CCC(CC3)C2C(=O)O)c(F)c1-c1ccccc1 (racemic) [Example 14, (+/−)-trans-3-((5-cyano-6-(5,7-difluoro-1H-indol-3-yl)-3-fluoro-4-phenylpyridin-2-yl)amino)bicyclo[2.2.2]octane-2-carboxylic Acid]	74.6	10.5	3.52	3.45	4.13	0.083	0.432	0.307	1.31	10.3	10.1	2.98	1.22	1.46
Cn1ccc2c(NC3C4CCC(CC4)C3C(=O)O)nc(-c3c[nH]c4ncc(F)cc34)cc21 (racemic) [Example 20, (+/−)-trans-3-((6-(5-fluoro-1H-pyrrolo[2,3-b]pyridin-3-yl)-1-methyl-1H-pyrrolo[3,2-c]pyridin-4-yl)amino)bicyclo[2.2.2]octane-2-carboxylic Acid]	–	2.58	–	–	–	–	–	–	–	–	–	–	–	–
Cn1cc(-c2c(F)c(N[C@H]3C4CCC(CC4)[C@@H]3C(=O)O)nc(-c3c[nH]c4c(F)cc(F)cc34)c2C#N)cn1 [Example 12a, (2S,3S)-3-((5-cyano-6-(5,7-difluoro-1H-indol-3-yl)-3-fluoro-4-(1-methyl-1H-pyrazol-4-yl)pyridin-2-yl)amino)bicyclo[2.2.2]octane-2-carboxylic Acid]	–	0.96	–	–	–	–	–	–	–	–	–	–	–	–
